pIC50: −log10 of the molar value.
Target: human P2X3 receptor (Homo sapiens (Human), UniProt P56373)
Assay: Evaluation of human P2X3 receptor inhibitory activity (Test Example 1-2, FLIPR 384, 384-well, 150 nM ATP)
Type: cell-based
Conditions: human P2X3 receptor in C6BU-1 cells; Test Example 1-2 (compounds I-301 to I-483); read-out: P2X3 IC50
Protocol: Stably expressing cell line (C6BU-1 cell transfected with human P2X3 receptor gene (GenBank accession number Y07683) was used. The cells were seeded in a 384-well microtiter plate at a concentration of 3000 cells/well and cultured in the medium (7.0% fetal bovine serum, 7.0% horse serum, 1% antibiotic and antifungal in DMEM) for one day at 37° C. under 5% carbon dioxide atmosphere. The medium was replaced with 4 μM Fluo-3-AM solution (20 mM HEPES, […], 5.27 mM KCl, 0.9 mM MgCl2, 1.26 mM CaCl2, 5.6 mM D-glucose, 2.5 mM probenecid, 0.5% BSA, and 0.04% Pluronic F-127, pH 7.5) and incubated at 37° C. under 5% dioxide carbon atmosphere for one hour. The plate was washed with washing buffer (20 mM HEPES, 137 mM NaCl, 5.27 mM KCl, 0.9 mM MgCl2, 1.26 mM CaCl2, 5.6 mM D-glucose, 2.5 mM probenecid, pH7.5), and each well was added with 20 μL of this buffer. The plate was placed in High-Throughput Screening System FLIPR 384 (Molecular Device Co.). Measurement of fluorescence intensity by FLIPR 384 was started, and 20 μL of DMSO solutions containing different concentrations of the test compound as prepared by dilution with dilution buffer (20 mM HEPES, 137 mM NaCl, 5.27 mM KCl, 0.9 mM MgCl2, 1.26 mM CaCl2, 5.6 mM D-glucose, 2.5 mM probenecid, 0.1% Pluronic F-127, pH 7.5) were dispensed to each well through the built-in automatic dispenser. Five minutes after, 150 nM ATP solution (25 μL) prepared by dilution with the dilution buffer was dispensed through the built-in automatic dispenser, and the measurement of fluorescence intensity was continued for 4 min. For each well, the specific maximum fluorescence intensity was calculated as the ratio of the maximum fluorescence intensity after addition of the ATP solution to the fluorescence intensity at the starting of the measurement. The 50% inhibitory concentration (IC50) was calculated under the assumption that the specific maximum fluorescence intensity without test compound is 0% inhibition and that the specific maximum fluorescence intensity when the dilution buffer was added in place of ATP solution is 100% inhibition, to evaluate the inhibitory activity of the test compound. The specific maximum fluorescence intensity and IC50 were calculated using Spotfire (Science & Technology Systems, Inc.)
The data of the compounds I-001 to I-300 are the results by the method mentioned in Test Example 1-1, and the data of the compounds I-301 to I-483 are the results by the method mentioned in Test Example 1-2.

Chain of human P2X3 receptor (P56373 whole entry): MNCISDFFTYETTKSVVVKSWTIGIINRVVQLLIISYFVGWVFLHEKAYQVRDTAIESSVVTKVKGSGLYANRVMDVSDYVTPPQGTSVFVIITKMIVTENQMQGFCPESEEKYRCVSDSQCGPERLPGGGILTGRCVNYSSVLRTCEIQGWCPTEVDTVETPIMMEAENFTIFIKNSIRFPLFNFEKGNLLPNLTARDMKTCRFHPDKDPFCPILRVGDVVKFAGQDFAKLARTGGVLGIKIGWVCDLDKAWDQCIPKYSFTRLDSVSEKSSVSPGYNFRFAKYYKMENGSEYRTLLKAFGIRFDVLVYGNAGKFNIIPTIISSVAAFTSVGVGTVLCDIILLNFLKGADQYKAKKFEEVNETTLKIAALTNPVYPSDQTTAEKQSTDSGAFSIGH

Row | SMILES | pIC50
1 | CCC(=O)Nc1c[nH]/c(=N\c2ccc(Oc3ccc(C#N)nn3)cc2)n(Cc2ccc(Cl)cc2)c1=O [Compound I-306] | 7.72
2 | O=c1c(Nc2ccon2)c[nH]/c(=N\c2ccc(Oc3ccon3)cc2)n1Cc1ccc(Cl)cc1 [Compound I-307] | 7.68
3 | Cc1noc(-c2c[nH]/c(=N\c3ccc(Oc4cccc(C#N)n4)cc3)n(Cc3ccc(Cl)cc3)c2=O)n1 [Compound I-310] | 7.80
4 | CCOC(=O)c1cnc(Oc2ccc(/N=c3\[nH]cc(-c4nc(C)no4)c(=O)n3Cc3ccc(Cl)cc3)cc2)s1 [Compound I-311] | 7.51
5 | COC(=O)c1ccc(Oc2ccc(/N=c3\[nH]cc(-c4nc(C)no4)c(=O)n3Cc3ccc(Cl)cc3)cc2)nn1 [Compound I-312] | 8.15
6 | Cc1noc(-c2c[nH]/c(=N\c3ccc(Oc4ncc(C(=O)O)s4)cc3)n(Cc3ccc(Cl)cc3)c2=O)n1 [Compound I-314] | 8.00
7 | Cc1noc(-c2c[nH]/c(=N\c3ccc(Oc4ccc(C(N)=O)nn4)cc3)n(Cc3ccc(Cl)cc3)c2=O)n1 [Compound I-315] | 8.00
8 | Cc1noc(-c2c[nH]/c(=N\c3ccc(Oc4cccc(C(N)=O)n4)cc3)n(Cc3ccc(Cl)cc3)c2=O)n1 [Compound I-316] | 7.89
9 | Cc1noc(-c2c[nH]/c(=N\c3ccc(Oc4ccc(C(=O)O)nn4)cc3)n(Cc3ccc(Cl)cc3)c2=O)n1 [Compound I-317] | 7.89
10 | O=c1c(Nc2ccon2)c[nH]/c(=N\c2ccc(Oc3ccc(F)cn3)cc2)n1Cc1ccc(Cl)cc1 [Compound I-318] | 7.57
11 | N#Cc1cccc(Oc2ccc(/N=c3\[nH]cc(Nc4ccon4)c(=O)n3Cc3ccc(Cl)cc3)cc2)n1 [Compound I-319] | 7.72
12 | COC(=O)c1cc(Oc2ccc(/N=c3\[nH]cc(Nc4ccon4)c(=O)n3Cc3ccc(Cl)cc3)cc2)ccn1 [Compound I-320] | 7.72
13 | CC(C)c1c[nH]/c(=N\c2ccc(Oc3cccc(C#N)n3)cc2)n(Cc2ccc(Cl)cc2)c1=O [Compound I-321] | 6.82
14 | COCCn1c(=O)cc(Nc2ccc(Oc3cccc(C#N)n3)c(C)n2)n(Cc2ccc(Cl)cc2)c1=O [Compound I-322] | 8.30
15 | COC(=O)[C@H](C)[C@H](C)n1c(=O)cc(Nc2ccc(Oc3ccc(F)cn3)cc2)n(Cc2ccc(Cl)cc2)c1=O [Compound I-323] | 7.59
16 | COCCn1c(=O)cc(Nc2ccc(Oc3cccc(C(=O)O)n3)c(C)n2)n(Cc2ccc(Cl)cc2)c1=O [Compound I-324] | 7.85
17 | C[C@@H](C(=O)O)[C@H](C)n1c(=O)cc(Nc2ccc(Oc3ccc(F)cn3)cc2)n(Cc2ccc(Cl)cc2)c1=O [Compound I-325] | 7.96
18 | CCn1c(=O)cc(Nc2ccc3nc(C(F)F)sc3c2)n(Cc2ccc(Cl)cc2)c1=O [Compound I-326] | 6.48
19 | Cc1nnc(-c2c[nH]/c(=N\c3ccc(Oc4cccc(C#N)n4)cc3)n(Cc3ccc(Cl)cc3)c2=O)o1 [Compound I-327] | 7.47
20 | Cc1nnc(-c2c[nH]/c(=N\c3ccc(Oc4cccc(C(=O)O)n4)cc3)n(Cc3ccc(Cl)cc3)c2=O)o1 [Compound I-328] | 7.96
21 | Cc1nnc(-c2c[nH]/c(=N\c3ccc(Oc4cccc(C(N)=O)n4)cc3)n(Cc3ccc(Cl)cc3)c2=O)o1 [Compound I-329] | 7.70
22 | CCC(=O)Nc1c[nH]/c(=N\c2ccc(Oc3cccc(CCC(=O)OC)c3)cc2)n(Cc2ccc(Cl)cc2)c1=O [Compound I-330] | 6.44
23 | CCC(=O)Nc1c[nH]/c(=N\c2ccc(Oc3cccc(CC(=O)OC)c3)cc2)n(Cc2ccc(Cl)cc2)c1=O [Compound I-331] | 6.51
24 | N#Cc1cccc(Oc2ccc(/N=c3\[nH]cc(N4CCCC4=O)c(=O)n3Cc3ccc(Cl)cc3)cc2)n1 [Compound I-332] | 6.75

Row | SMILES | pIC50
25 | O=C1CCCN1c1c[nH]/c(=N\c2ccc(Oc3cccc(F)n3)cc2)n(Cc2ccc(Cl)cc2)c1=O [Compound I-333] | 6.83
26 | CSc1cccc(Oc2ccc(/N=c3\[nH]cc(N4CCCC4=O)c(=O)n3Cc3ccc(Cl)cc3)cc2)n1 [Compound I-334] | 6.08
27 | NC(=O)c1cccc(Oc2ccc(/N=c3\[nH]cc(N4CCCC4=O)c(=O)n3Cc3ccc(Cl)cc3)cc2)n1 [Compound I-335] | 6.64
28 | O=C(O)c1cccc(Oc2ccc(/N=c3\[nH]cc(N4CCCC4=O)c(=O)n3Cc3ccc(Cl)cc3)cc2)n1 [Compound I-336] | 7.39
29 | CCC(=O)Nc1c[nH]/c(=N\c2ccc(Oc3cccc(CCC(=O)O)c3)cc2)n(Cc2ccc(Cl)cc2)c1=O [Compound I-337] | 7.12
30 | COC(=O)[C@H](C)[C@H](C)n1c(=O)cc(Nc2ccc(Oc3ccc(F)nc3)c(C)n2)n(Cc2ccc(Cl)cc2)c1=O [Compound I-338] | 8.05
31 | Cc1nc(Nc2cc(=O)n(C(C)C)c(=O)n2Cc2ccc(Cl)cc2)ccc1Oc1cccc(C#N)c1 [Compound I-340] | 8.10
32 | Cc1nc(Nc2cc(=O)n(C(C)C)c(=O)n2Cc2ccc(Cl)cc2)ccc1Oc1cccc(C(=O)O)n1 [Compound I-341] | 8.00
33 | COCCn1c(=O)cc(Nc2ccc(Oc3ccc(F)nc3)cc2)n(Cc2ccc(Cl)cc2)c1=O [Compound I-342] | 8.00
34 | CC(=O)OCC(=O)NNC(=O)c1c[nH]/c(=N\c2ccc(Oc3ccon3)cc2)n(Cc2ccc(Cl)cc2)c1=O [Compound I-343] | 7.08
35 | C#CCNC(=O)c1c[nH]/c(=N\c2ccc(Oc3ccon3)cc2)n(Cc2ccc(Cl)cc2)c1=O [Compound I-344] | 8.40
36 | Cc1noc(-c2c[nH]/c(=N\c3ccc(Oc4ccon4)cc3)n(Cc3ccc(Cl)cc3)c2=O)n1 [Compound I-345] | 7.42
37 | CN(C)C(=O)c1c[nH]/c(=N\c2ccc(Oc3ccon3)cc2)n(Cc2ccc(Cl)cc2)c1=O [Compound I-346] | 6.46
38 | CC(=O)NNC(=O)c1c[nH]/c(=N\c2ccc(Oc3ccon3)cc2)n(Cc2ccc(Cl)cc2)c1=O [Compound I-347] | 6.82
39 | CC(=O)OCc1nnc(-c2c[nH]/c(=N\c3ccc(Oc4ccon4)cc3)n(Cc3ccc(Cl)cc3)c2=O)o1 [Compound I-348] | 7.12
40 | Cc1nnc(-c2c[nH]/c(=N\c3ccc(Oc4ccon4)cc3)n(Cc3ccc(Cl)cc3)c2=O)o1 [Compound I-349] | 7.14
41 | COc1cn(Cc2ccc(Cl)cc2)c(Nc2ccc(Oc3cccc(C#N)n3)cc2)nc1=O [Compound I-350] | 6.39
42 | COc1cn(Cc2ccc(Cl)cc2)c(Nc2ccc(Oc3cccc(F)n3)cc2)nc1=O [Compound I-351, 1-(4-chlorobenzyl)-2-[4-(6-fluoro-2-pyridyloxy)phenylamino]-5-methoxypyrimidin-4(1H)-one] | 7.01
43 | CC(c1ccc(F)cc1)n1cc(C(=O)NC2CCOCC2)c(=O)nc1Nc1ccc(Oc2cccc(F)n2)cc1 (stereo not drawn) [Compound I-352] | 6.43
44 | CC(C)c1c[nH]/c(=N\c2ccc(Oc3cccc(C(=O)O)n3)cc2)n(Cc2ccc(Cl)cc2)c1=O [Compound I-353] | 8.22
45 | CCC(=O)Nc1c[nH]/c(=N\c2ccc(Oc3cccc(CC(=O)O)c3)cc2)n(Cc2ccc(Cl)cc2)c1=O [Compound I-355] | 7.28
46 | O=C1CCCN1C1=CN[C@@H](Nc2ccc(Oc3ccon3)cc2)N(Cc2ccc(Cl)cc2)C1=O [Compound I-356] | 6.67
47 | Cc1ccccc1Cn1cc(C(=O)NC2CCOCC2)c(=O)nc1Nc1ccc(Oc2cccc(F)n2)cc1 [Compound I-357] | 6.11
48 | CC(c1ccc(Cl)cc1)n1cc(C(=O)NC2CCOCC2)c(=O)nc1Nc1ccc(Oc2cccc(F)n2)cc1 (stereo not drawn) [Compound I-358] | 7.64

From patent US9550763B2, “Heterocyclic ring and carbocyclic derivative” (Shionogi & Co., Ltd., priority 2012, dated 2017)
